For eight molecules, inhibition and IC50 results are on record in ChEMBL document CHEMBL4420069, “Targeting capn9/capns2 activity as a therapeutic strategy for the treatment of myofibroblast differentiation and associated pathologies” (2018).

Activity calls are given as the source filed them. The rule behind the calls is not given here. Where a SMILES comes first, the peptide text is derived from it. The star is where a group is joined. Cbz = O=C(OCc1ccccc1)*; CH2F = FC*

For experiment [1], the species on record is Mus musculus. The experiment is described as follows: Inhibition of calpain in mouse NMuMG cells assessed as suppression of TGFbeta1-induced EMT by measuring alpha-SMA expression at 10 to 20 uM incubated for 24 to 72 hrs by Western blot analysis. The experiment is classed as cell-based.
Experiment [2] is filed under the species Mus musculus. The experiment is described as follows: Inhibition of calpain in mouse NMuMG cells assessed as suppression of TGFbeta1-induced E-cadherin expression at 10 to 20 uM incubated for 48 to 72 hrs after 72 hrs pre-incubation with TGFbeta with continued presence of TGFbeta by immunofluorescence microscopy. The experiment is classed as cell-based.
The species named for experiment [3] is Mus musculus. The experiment is described as follows: Inhibition of calpain in mouse NMuMG cells assessed as suppression of TGFbeta1-induced E-cadherin expression at 10 to 20 uM by immunofluorescence microscopy. It is filed as cell-based.
The target in experiment [4] is Mothers against decapentaplegic homolog 2 (Mus musculus) (UniProt Q62432). The experiment can be described thus: Inhibition of TGFbeta1-induced SMAD2 phosphorylation in mouse NMuMG cells at 10 to 20 uM incubated for 24 to 72 hrs. It is filed as cell-based.
The subject of experiment [5] is MDCK. The experiment is described as follows: Inhibition of calpain in MDCK cells assessed as suppression of TGFbeta1-induced EMT by measuring alpha-SMA expression at 10 to 20 uM incubated for 24 to 72 hrs by Western blot analysis. It is filed as cell-based. As to conditions: Canis lupus familiaris. On the technique in general: A western blot detects proteins with antibodies after separation by electrophoresis.

The species named for experiment [6] is Mus musculus. The experiment is described as follows: Inhibition of calpain in mouse NMuMG cells assessed as suppression of TGFbeta1-induced actin cytoskeleton reorganization at 10 to 20 uM incubated for 48 to 72 hrs after 72 hrs pre-incubation with TGFbeta with continued presence of TGFbeta. The experiment is classed as cell-based.
Experiment [7] is filed under the species Mus musculus. The experiment is described as follows: Inhibition of calpain in mouse NMuMG cells assessed as suppression of TGFbeta1-induced actin cytoskeleton reorganization at 10 to 20 uM. The experiment is classed as cell-based.
For experiment [8], the species on record is Mus musculus. The experiment is described as follows: Inhibition of calpain in mouse NMuMG cells assessed as suppression of TGFbeta1-induced EMT by measuring alpha-SMA expression at 10 to 20 uM incubated for 48 to 72 hrs after 72 hrs pre-incubation with TGFbeta with continued presence of TGFbeta by Western blot analysis. It is filed as cell-based.
The species entered for experiment [9] is Mus musculus. The experiment is described as follows: Inhibition of calpain in mouse NMuMG cells assessed as suppression of TGFbeta1-induced EMT by measuring MMP9 expression at 10 to 20 uM incubated for 48 hrs. It is filed as cell-based.
The species entered for experiment [10] is Mus musculus. The experiment can be described thus: Inhibition of calpain in mouse NMuMG cells assessed as suppression of TGFbeta1-induced EMT by measuring vimentin expression at 10 to 20 uM incubated for 48 hrs. It is filed as cell-based.
The species entered for experiment [11] is Mus musculus. The experiment is described as follows: Inhibition of calpain in mouse NMuMG cells assessed as suppression of TGFbeta1-induced EMT by measuring MMP2 expression at 10 to 20 uM incubated for 48 hrs. It is filed as cell-based.
Experiment [12] is filed under the species Mus musculus. The experiment can be described thus: Inhibition of calpain in mouse NMuMG cells assessed as suppression of TGFbeta1-induced EMT by measuring collagen 1A1 expression at 10 to 20 uM incubated for 48 hrs. It is filed as cell-based.
The target of experiment [13] is Calpain1/2 (Homo sapiens) (UniProt P17655+P07384). As to conditions: 10 to 20 uM.
Description: Inhibition of calpain in NHLF assessed as inhibition of TGFB1-induced FMT by measuring alpha-SMA expression at 10 to 20 uM incubated for 24 hrs by Western blot analysis
The target in experiment [14] is T1, Calpain-9 (Homo sapiens, UniProt O14815).
T1 sequence (O14815 whole entry): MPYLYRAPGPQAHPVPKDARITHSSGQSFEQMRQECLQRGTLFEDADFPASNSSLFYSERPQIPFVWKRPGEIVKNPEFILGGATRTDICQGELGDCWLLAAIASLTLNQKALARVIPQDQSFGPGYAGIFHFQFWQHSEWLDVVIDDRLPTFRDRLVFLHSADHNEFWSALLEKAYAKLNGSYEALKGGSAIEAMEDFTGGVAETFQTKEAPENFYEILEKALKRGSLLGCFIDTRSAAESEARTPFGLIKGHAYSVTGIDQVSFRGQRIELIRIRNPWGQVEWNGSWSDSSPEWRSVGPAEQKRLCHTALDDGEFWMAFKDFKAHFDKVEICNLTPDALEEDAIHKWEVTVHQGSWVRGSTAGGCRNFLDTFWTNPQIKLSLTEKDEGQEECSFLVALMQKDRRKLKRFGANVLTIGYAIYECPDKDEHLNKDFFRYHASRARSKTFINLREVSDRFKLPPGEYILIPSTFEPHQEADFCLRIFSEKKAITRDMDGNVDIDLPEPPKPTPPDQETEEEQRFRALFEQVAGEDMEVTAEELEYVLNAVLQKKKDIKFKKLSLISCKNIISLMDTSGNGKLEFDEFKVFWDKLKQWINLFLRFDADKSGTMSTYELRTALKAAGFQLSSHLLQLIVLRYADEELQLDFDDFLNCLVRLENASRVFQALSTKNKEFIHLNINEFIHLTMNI
The experiment can be described thus: Inhibition of human recombinant mini-CAPN9 pre-incubated for 10 mins before calpain FRET peptide 5-FAM /QXL520 substrate addition by FLIPR assay.

The species named for experiment [15] is Mus musculus. The experiment can be described thus: Inhibition of calcineurin in mouse NMuMG cells assessed as suppression of TGFbeta1-induced EMT by measuring alpha-SMA expression at 0.25 to 0.75 uM incubated for 72 hrs by Western blot analysis. It is filed as cell-based.
Experiment [16] concerns the target Transient receptor potential cation channel subfamily M member 7 (Mus musculus) (UniProt Q923J1). Particulars: at 25 to 50 µM.
Description: Inhibition of TRPM7 in mouse NMuMG cells assessed as suppression of TGFbeta1-induced EMT by measuring alpha-SMA expression at 25 to 50 uM incubated for 24 to 72 hrs by Western blot analysis
The target in experiment [17] is Mothers against decapentaplegic homolog 2 (Mus musculus) (UniProt Q62432). The experiment can be described thus: Inhibition of TGFbeta1-induced SMAD2 phosphorylation in mouse NMuMG cells at 25 to 50 uM incubated for 72 hrs. It is filed as cell-based.
Experiment [18] concerns the target Transient receptor potential cation channel subfamily M member 7 (Homo sapiens) (UniProt Q96QT4). The experiment can be described thus: Inhibition of TRPM7 in NHLF assessed as inhibition of TGFB1-induced FMT by measuring alpha-SMA expression at 25 to 50 uM incubated for 24 hrs by Western blot analysis.
For experiment [19], the target named is Transient receptor potential cation channel subfamily M member 7 (Mus musculus) (UniProt Q923J1). Particulars: at 25 to 50 µM. The source holds these as a separate data set.
Description: Inhibition of TRPM7 in mouse NMuMG cells assessed as suppression of TGFbeta1-induced calpain activity by measuring Filamin-A levels at 25 to 50 uM incubated for 24 to 72 hrs by Western blot analysis
Experiment [20] deals with Mothers against decapentaplegic homolog 2 (Mus musculus) (UniProt Q62432). Particulars: at 25 to 50 µM.
Description: Inhibition of TGFbeta1-induced SMAD2 phosphorylation in mouse NMuMG cells at 25 to 50 uM incubated for 24 to 72 hrs
Experiment [21] is filed under the species Mus musculus. The experiment is described as follows: Inhibition of calpain in mouse NMuMG cells assessed as suppression of TGFbeta1-induced EMT by measuring alpha-SMA expression at 25 to 50 uM incubated for 24 to 72 hrs by Western blot analysis. It is filed as cell-based.
The species entered for experiment [22] is Mus musculus. The experiment is described as follows: Inhibition of calpain in mouse NMuMG cells assessed as suppression of TGFbeta1-induced calpain activity by measuring Filamin-A levels at 25 to 50 uM incubated for 24 to 72 hrs by Western blot analysis. It is filed as cell-based.
The species entered for experiment [23] is Mus musculus. The experiment is described as follows: Inhibition of TGFbeta receptor in mouse NMuMG cells assessed as suppression of TGFbeta1-induced EMT by measuring alpha-SMA expression at 1 to 10 uM incubated for 24 to 72 hrs by Western blot analysis. It is filed as cell-based.
The species entered for experiment [24] is Mus musculus. The experiment is described as follows: Inhibition of TGFbeta receptor in mouse NMuMG cells assessed as suppression of TGFbeta1-induced calpain activity by measuring Filamin-A levels at 1 to 10 uM incubated for 24 to 72 hrs by Western blot analysis. It is filed as cell-based.
The species named for experiment [25] is Mus musculus. The experiment can be described thus: Inhibition of TGFbeta receptor in mouse NMuMG cells assessed as suppression of TGFbeta1-induced SMAD2 phosphorylation at 1 to 10 uM incubated for 24 to 72 hrs by Western blot analysis. It is filed as cell-based.

Chain of Transient receptor potential cation channel subfamily M member 7 (Mus musculus) (Q923J1 whole entry): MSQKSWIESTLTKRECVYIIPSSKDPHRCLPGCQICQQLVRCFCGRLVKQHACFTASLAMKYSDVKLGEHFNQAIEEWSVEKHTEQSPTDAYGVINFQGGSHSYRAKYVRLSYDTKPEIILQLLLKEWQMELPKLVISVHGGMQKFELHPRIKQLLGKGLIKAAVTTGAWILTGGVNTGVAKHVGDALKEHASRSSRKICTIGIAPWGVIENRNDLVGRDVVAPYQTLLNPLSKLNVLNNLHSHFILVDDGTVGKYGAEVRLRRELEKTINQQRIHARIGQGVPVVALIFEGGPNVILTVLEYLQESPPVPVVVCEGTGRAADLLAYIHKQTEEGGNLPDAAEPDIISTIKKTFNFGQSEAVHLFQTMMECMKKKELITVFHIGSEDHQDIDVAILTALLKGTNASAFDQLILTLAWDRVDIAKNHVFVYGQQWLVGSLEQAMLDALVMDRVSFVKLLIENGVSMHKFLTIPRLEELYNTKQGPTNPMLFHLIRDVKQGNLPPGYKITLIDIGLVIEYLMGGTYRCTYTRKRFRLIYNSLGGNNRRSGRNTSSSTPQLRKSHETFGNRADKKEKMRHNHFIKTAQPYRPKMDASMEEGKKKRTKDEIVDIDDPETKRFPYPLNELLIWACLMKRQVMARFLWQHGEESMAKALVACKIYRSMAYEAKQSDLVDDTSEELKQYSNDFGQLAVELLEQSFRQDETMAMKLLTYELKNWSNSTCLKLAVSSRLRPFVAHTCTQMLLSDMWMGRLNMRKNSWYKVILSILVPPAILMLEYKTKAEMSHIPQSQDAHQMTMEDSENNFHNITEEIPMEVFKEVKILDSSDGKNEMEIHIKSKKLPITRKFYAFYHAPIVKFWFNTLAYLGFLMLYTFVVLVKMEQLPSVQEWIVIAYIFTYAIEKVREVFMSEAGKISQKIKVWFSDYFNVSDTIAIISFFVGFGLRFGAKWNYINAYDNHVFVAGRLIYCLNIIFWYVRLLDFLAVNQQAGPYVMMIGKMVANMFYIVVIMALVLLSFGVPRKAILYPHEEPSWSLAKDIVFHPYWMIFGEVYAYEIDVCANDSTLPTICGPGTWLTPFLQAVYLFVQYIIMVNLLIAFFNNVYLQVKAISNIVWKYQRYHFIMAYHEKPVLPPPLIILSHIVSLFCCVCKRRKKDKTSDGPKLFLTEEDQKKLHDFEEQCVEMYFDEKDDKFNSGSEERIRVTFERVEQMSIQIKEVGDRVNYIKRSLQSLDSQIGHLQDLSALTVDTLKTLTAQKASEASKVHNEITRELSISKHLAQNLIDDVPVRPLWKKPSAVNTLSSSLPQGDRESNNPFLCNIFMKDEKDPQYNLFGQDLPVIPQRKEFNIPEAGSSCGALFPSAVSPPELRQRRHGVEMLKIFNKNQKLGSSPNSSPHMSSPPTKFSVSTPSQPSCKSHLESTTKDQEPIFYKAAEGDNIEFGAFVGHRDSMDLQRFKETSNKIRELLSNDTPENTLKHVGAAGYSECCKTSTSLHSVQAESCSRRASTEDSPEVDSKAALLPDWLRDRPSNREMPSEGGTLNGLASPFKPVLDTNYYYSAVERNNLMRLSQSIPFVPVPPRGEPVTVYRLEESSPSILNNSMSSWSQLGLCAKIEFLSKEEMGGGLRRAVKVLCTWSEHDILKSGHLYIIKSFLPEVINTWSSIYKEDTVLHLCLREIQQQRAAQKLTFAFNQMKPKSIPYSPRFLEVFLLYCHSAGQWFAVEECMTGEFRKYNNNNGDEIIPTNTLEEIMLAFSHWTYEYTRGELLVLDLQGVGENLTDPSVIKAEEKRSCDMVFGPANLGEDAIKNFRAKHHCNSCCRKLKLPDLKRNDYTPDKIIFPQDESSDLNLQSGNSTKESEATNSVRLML
Chain of Mothers against decapentaplegic homolog 2 (Mus musculus) (Q62432 whole entry): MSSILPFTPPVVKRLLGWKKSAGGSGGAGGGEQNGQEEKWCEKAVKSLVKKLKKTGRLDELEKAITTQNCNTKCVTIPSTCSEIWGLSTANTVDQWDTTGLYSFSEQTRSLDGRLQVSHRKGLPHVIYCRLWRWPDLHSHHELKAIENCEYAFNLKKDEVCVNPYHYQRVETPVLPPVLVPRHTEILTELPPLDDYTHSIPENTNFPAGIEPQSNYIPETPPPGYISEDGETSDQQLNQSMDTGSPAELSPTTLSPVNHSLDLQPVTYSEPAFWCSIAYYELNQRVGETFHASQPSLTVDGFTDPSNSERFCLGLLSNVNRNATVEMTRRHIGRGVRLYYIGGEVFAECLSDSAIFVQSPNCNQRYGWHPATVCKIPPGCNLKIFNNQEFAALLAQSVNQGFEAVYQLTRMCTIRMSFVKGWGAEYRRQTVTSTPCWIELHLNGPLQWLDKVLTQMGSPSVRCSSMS
Chain of Calpain1/2 (Homo sapiens) (P07384 whole entry, looked up): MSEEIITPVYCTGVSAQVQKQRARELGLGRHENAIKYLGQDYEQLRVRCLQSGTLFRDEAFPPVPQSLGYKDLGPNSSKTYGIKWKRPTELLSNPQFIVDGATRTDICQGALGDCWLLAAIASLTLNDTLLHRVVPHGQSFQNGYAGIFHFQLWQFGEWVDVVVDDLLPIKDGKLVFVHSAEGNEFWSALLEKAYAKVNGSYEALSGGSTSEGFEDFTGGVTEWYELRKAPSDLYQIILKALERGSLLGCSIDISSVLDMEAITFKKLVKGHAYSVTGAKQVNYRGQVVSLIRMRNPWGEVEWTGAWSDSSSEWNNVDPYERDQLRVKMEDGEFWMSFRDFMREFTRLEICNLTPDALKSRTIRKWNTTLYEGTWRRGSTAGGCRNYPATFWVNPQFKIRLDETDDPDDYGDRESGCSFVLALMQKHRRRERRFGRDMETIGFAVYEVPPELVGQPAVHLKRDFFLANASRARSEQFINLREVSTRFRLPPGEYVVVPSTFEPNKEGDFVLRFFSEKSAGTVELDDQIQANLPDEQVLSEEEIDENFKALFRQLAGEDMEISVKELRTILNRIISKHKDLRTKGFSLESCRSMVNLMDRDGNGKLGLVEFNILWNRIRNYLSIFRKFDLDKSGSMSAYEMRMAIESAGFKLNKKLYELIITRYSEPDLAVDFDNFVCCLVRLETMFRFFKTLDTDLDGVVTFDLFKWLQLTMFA
Chain of Calpain1/2 (Homo sapiens) (P17655 whole entry, looked up): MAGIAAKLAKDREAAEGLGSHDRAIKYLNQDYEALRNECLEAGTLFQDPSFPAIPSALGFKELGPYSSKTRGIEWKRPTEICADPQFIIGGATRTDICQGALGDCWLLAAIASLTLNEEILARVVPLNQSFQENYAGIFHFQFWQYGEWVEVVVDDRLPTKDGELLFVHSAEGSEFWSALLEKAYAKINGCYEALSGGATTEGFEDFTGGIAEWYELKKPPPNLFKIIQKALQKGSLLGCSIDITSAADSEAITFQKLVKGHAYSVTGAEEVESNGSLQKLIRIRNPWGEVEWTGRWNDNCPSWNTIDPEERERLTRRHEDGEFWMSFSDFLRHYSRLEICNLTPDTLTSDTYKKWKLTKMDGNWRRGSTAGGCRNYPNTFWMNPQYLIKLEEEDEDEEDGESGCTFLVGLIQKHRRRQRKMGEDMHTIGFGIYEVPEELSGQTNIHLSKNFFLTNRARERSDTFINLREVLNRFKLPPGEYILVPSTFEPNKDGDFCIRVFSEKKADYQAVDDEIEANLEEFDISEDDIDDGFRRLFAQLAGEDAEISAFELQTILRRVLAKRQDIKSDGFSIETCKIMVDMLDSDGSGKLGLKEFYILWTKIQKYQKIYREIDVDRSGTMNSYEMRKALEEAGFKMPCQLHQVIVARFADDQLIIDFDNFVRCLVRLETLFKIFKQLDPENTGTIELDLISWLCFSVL

As to `CC(C)[C@H](NC(=O)OCc1ccccc1)C(=O)N[C@H](C=O)Cc1ccccc1` (Cbz-Val-Phe-aldehyde), the inhibition result in experiment [1], in [2], in experiment [3], in experiment [5], in experiment [6] and in [7] was “Active” throughout. Besides, the inhibition result in [8], in experiment [9], in experiment [10], in experiment [11], in experiment [12] and in experiment [13] was “Active” in each case. In addition, in experiment [4], the inhibition entry is “inactive”.

In general, IC50 refers to the point on the concentration scale where inhibition reaches its midpoint. Take `C[C@H](NC(=O)[C@H](Cc1ccccc1)NC(=O)OCc1ccccc1)C(=O)CF`: the IC50 in experiment [14] amounted to 100 µM.

For `C=CC[C@@H]1/C=C(\C)C[C@H](C)C[C@H](OC)[C@H]2O[C@@](O)(C(=O)C(=O)N3CCCC[C@H]3C(=O)O[C@H](/C(C)=C/[C@@H]3CC[C@@H](O)[C@H](OC)C3)[C@H](C)[C@@H](O)CC1=O)[C@H](C)C[C@@H]2OC`, the inhibition result in experiment [15] was “Active”.

Regarding `c1ccc2c(c1)CCC[C@H]2Nc1nc2ccccc2[nH]1`, the inhibition entry in [16], in experiment [18] and in [19] was “Active” in each case. Further, in [17], the inhibition entry is “inactive”.

Consider `NCCOB(c1ccccc1)c1ccccc1`, for which the inhibition result in [16] and in experiment [19] was “Active” in each case. Besides, the inhibition result in experiment [20] is “inactive”.

For the molecule `CCCC[C@@H](C=O)NC(=O)[C@H](CC(C)C)NC(=O)OCc1ccccc1`, the inhibition entry in experiment [21] and in [22] was “Active” in each case. For the same molecule, the inhibition entry in [20] is “inactive”.

As for `NC(=O)c1ccc(-c2nc(-c3ccccn3)c(-c3ccc4c(c3)OCO4)[nH]2)cc1`, the inhibition result in experiment [23], in experiment [24] and in experiment [25] was “Active” throughout.

Turning to `COC(=O)C[C@H](NC(=O)[C@H](C)NC(=O)[C@@H](NC(=O)OCc1ccccc1)C(C)C)C(=O)CF` (Cbz-Val-Ala-Asp(OMe)-CH2F), the IC50 in [14] amounted to 100 µM.
